Assay results published in PMC10401651, “Characterization of Uranyl (UO2^2+) Ion Binding to Amyloid Beta (Aβ) Peptides: Effects on Aβ Structure and Aggregation” (ACS Chemical Neuroscience, 2023).
Values joined by “and” are separate entries in the source; they are usually repeats but may differ in a detail not shown here. Equal entries are not always repeated. Where two headings read alike, the source gives them in different places.

Experiments:
Aβ40 peptide = target: T1, Aβ40 peptide (Homo sapiens, UniProt P05067); test: Binding affinity via Tyr10 fluorescence quenching, Aβ40; details: for Kd: 20 μM Aβ40
T1 construct: namely, the Aβ40 peptide and the Aβ40 (H6A, H13A, and H14A) triple-mutant; purchased AlexoTech AB (Umeå, Sweden); host or cells: recombinant
T1 sequence (P05067 672-711 limits assumed): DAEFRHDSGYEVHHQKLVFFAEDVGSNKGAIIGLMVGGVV
Method: (§1) Fluorescence measurements were conducted on a Jobin Yvon Horiba Fluorolog 3 fluorescence spectrophotometer (Longjumeau, France) using a quartz cuvette with a 4 mm path length. […] Apparent dissociation constants (KD^App) were determined by fitting the plots to eq 2 [drawing 2] 2 where I0 is the initial fluorescence intensity with no added UO2^2+ ions, I∞ is the steady-state intensity at the end of the titration, [Ab] is the protein concentration, and [U] is the concentration of added UO2^2+ ions.[121],[160]

[1] = target: T2, Aβ40 (H6A, H13A, and H14A) triple-mutant, Aβ40 (NoHis) (Homo sapiens, UniProt P05067, H677A/H684A/H685A); test: Binding affinity via Tyr10 fluorescence quenching, Aβ40 (NoHis) mutant; details: 20 μM Aβ40 (NoHis)
T2 construct: the Aβ40 (H6A, H13A, and H14A) triple-mutant; purchased AlexoTech AB (Umeå, Sweden); host or cells: recombinant
T2 sequence (P05067 672-711 H677A/H684A/H685A): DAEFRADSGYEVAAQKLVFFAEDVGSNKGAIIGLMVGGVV
From the text: Synthetic lyophilized wt Aβ (1–42) peptides, abbreviated as Aβ42, with the primary sequence DAEFR5HDSGY10EVHHQ15KLVFF20AEDVG25SNKGA30IIGLM35VGGVV40IA, were purchased from JPT Peptide Technologies (Germany). Two recombinant Aβ variants were purchased as lyophilized powder from AlexoTech AB (Umeå, Sweden), namely, the Aβ40 peptide and the Aβ40 (H6A, H13A, and H14A) triple-mutant, which in the following is referred to as the Aβ40 (NoHis) mutant. The Aβ40 peptide was also purchased uniformly single-labeled with ^15N isotopes. All Aβ40 peptide variants were stored at −80 °C until use. Before measurements, they were dissolved in 10 mM NaOH and then sonicated in an ice bath for 5 min to avoid pre-formed aggregates. The samples were then diluted in either sodium phosphate buffer at pH 7.3 or in MES buffer at pH 7.3 or 5.1. The peptide concentrations were initially estimated from the weight of the dry powder and then more accurately determined with a NanoDrop spectrophotometer.
as §1, with “length. The fluorescence emission intensity of samples containing 20 μM Aβ peptides in 20 mM MES buffer, at either pH 7.3 or pH 5.5 and without or with 50 mM SDS detergent present, was measured at 305 nm (excitation wavelength 276 nm) at 20 °C.” for “length.”

Aβ42 oligomers = target: T3, Aβ42 oligomers (Homo sapiens, UniProt P05067); test: BN-PAGE analysis of SDS-stabilized Aβ42 oligomer formation; assay type: biochemical
T3 construct: Synthetic lyophilized wt Aβ (1–42) peptides, abbreviated as Aβ42; purchased JPT Peptide Technologies (Germany); host or cells: synthetic peptide
T3 sequence (P05067 672-713 limits assumed): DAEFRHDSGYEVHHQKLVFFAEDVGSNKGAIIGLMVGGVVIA
Method: Treatment of Aβ42 peptides with low concentrations (≤7 mM) of SDS, i.e., below the critical micelle concentration for SDS, which is 8.2 mM in water at 25 °C,[152] leads to the formation of stable and homogeneous Aβ42 oligomers of certain sizes and conformations.[131],[132],[153] To prepare such oligomers, size exclusion chromatography (SEC) was initially used to purify synthetic Aβ42 peptides into monomeric form. First, 1 mg of lyophilized Aβ42 powder was dissolved in […] of DMSO. Next, a […] HiTrap desalting column (GE Healthcare, Uppsala) was equilibrated with a 5 mM NaOH solution (pH = 12.3) and washed with a solution of 10–15 mL of 5 mM NaOD, pD = 12.7.[154] The peptide solution in DMSO was applied to the column, followed by an injection of 1.25 mL of 5 mM NaOD. The collection of peptide fractions in 5 mM NaOD on ice was started at a […] flow rate. Ten fractions of 1 mL volumes were collected in 1.5 mL Eppendorf tubes. The absorbance for each fraction at 280 nm was measured with a NanoDrop instrument (Eppendorf, Germany), and peptide concentrations were determined using a molar extinction coefficient of 1280 M^–1 cm^–1 for the single Tyr in Aβ42.[155] The peptide fractions were flash-frozen in liquid nitrogen, covered with argon gas on top in 1.5 mL Eppendorf tubes, and stored at −80 °C until used. SDS-stabilized Aβ42 oligomers of two well-defined sizes (approximately tetramers and dodecamers) were prepared according to a previously published protocol,[131] but in D2O, at a 4-fold lower peptide concentration and without the original dilution step.[132]
Thus, 4–16% Bis–Tris Novex gels (Thermo Fisher Scientific, USA) were loaded with 10 μL samples containing Aβ42 oligomer solutions alongside alongside the Amersham high MW calibration kit for native electrophoresis (GE Healthcare, USA). The gels were run at 4 °C using the electrophoresis system according to the Invitrogen instructions (Thermo Fisher Scientific, USA) and then stained with the Pierce Silver Staining Kit according to the manufacturer’s instructions (Thermo Fisher Scientific, USA). […]

CC(=O)[O-].CC(=O)[O-].[O]=[U+2]=[O] [uranyl ions, uranyl acetate]
affinities for binding to Aβ peptides (Aβ40 peptide; general statement of the abstract): micromolar range
Kd (Aβ40 peptide; pH 5.1 + 50 mM SDS, read-out: KD^App, single replicates): 21.8 µM and 21.7 µM and 27.4 µM
Kd (Aβ40 peptide; pH 5.1 + 50 mM SDS, three replicates, read-out: KD^App, average): 23.6 ± 3 µM
Kd (Aβ40 peptide; pH 5.1, 20 mM MES, read-out: KD^App, single replicates): 14 µM and 13.7 µM and 21.3 µM
Kd (Aβ40 peptide; pH 5.1, 20 mM MES, three replicates, read-out: KD^App, average): 16.3 ± 4 µM
Kd (Aβ40 peptide; pH 7.3 + 50 mM SDS, not to be trusted, read-out: KD^App, single replicates): 206 µM and 252 µM and 251 µM
Kd (Aβ40 peptide; pH 7.3 + 50 mM SDS, three replicates, not to be trusted, read-out: KD^App, average): 236 ± 22 µM
Kd (Aβ40 peptide; pH 7.3, 20 mM MES, data deviate from single-site model, not to be trusted, read-out: KD^App, single replicates): 130 µM and 141 µM and 148 µM
Kd (Aβ40 peptide; pH 7.3, 20 mM MES, three replicates, not to be trusted, read-out: KD^App, average): 140 ± 8 µM
Kd ([1]; pH 7.3 + 50 mM SDS, read-out: KD^App, single replicates): 119 µM and 124 µM and 116 µM
Kd ([1]; pH 7.3 + 50 mM SDS, three replicates, read-out: KD^App, average): 120 ± 4 µM
Kd ([1]; pH 7.3, 20 mM MES, read-out: KD^App, single replicates): 62 µM and 86 µM and 79 µM
Kd ([1]; pH 7.3, 20 mM MES, three replicates, read-out: KD^App, average): 76 ± 11 µM
formation of AβO0.05%SDS oligomers (BN-PAGE) (Aβ42 oligomers; 0.05% SDS, 10, 100, 1000 μM uranyl acetate, 80–100 μM Aβ42): no well-defined uniform oligomers were observed
concentration required for full disruption of homogeneous AβO0.05%SDS oligomers (Aβ42 oligomers; 0.05% SDS, Aβ42 oligomers): 10 µM
formation of AβO0.2%SDS oligomers (BN-PAGE) (Aβ42 oligomers; 0.2% SDS, 10, 100, 1000 μM uranyl, 80–100 μM Aβ42): gradually lower amounts of stable AβO0.2%SDS oligomers
